Reference: patent publication US20250127907A1, “PARP INHIBITORS” (Stablix, Inc., priority 2023, published 2025)

Legend:
Type in all cases: cell-based
[1] = test system: Poly/Mono-ADP Ribose in U2OS cells; experiment: PAR in cell western assay (parylation) in U2OS cells; conditions: Homo sapiens; U2OS cells, 6 hrs, 2 mM H2O2; read-out: Parylation (U2OS)
Protocol: U2OS cells are seeded at 2667 cells per well in 24 ul medium into poly-D lysine-coated 384 well plate and incubated in the TC incubator for O/N
The next day, test comps are diluted in a source plate and 6 μL of the diluted comp is added to the cell plate; mixed well and incubated for 6 hrs. DNA damage is induced with 2 mM H2O2 for 10 min. After discarding the medium, cells are fixed in ice cold Methanol at for 20 min at −20C. After a wash step at room temperature, cells are permeabilized with 0.05% NP-40 in PBS for 10 min, followed by wash steps. Cells are blocked with 1% BSA, at room temperature for 1 hr. Cells are stained with anti mono/polyADP ribose antibody (E6F6A, Cell signaling, 1:5000) in 1×PBS/1% BSA/0.05% Tween o/n at 4C.
Next Day, cells are washed and incubated with anti-Rabbit 800CV (Licor antibody, 1:500) and CellTag 700 (Licor, 1:800) in 1×PBS/1% BSA/0.05% Tween for 1 h. After washing, plates are scanned using LICOR and are quantified.
Parylation inhibition is reported as % control inhibition.
(§1) The letter codes for the PARP1-enzyme assay include: A (<1 nM), B (>1-10 nM), C (>10-100 nM), D (>100-1000 nM), E (>1000 nM), and “-” is not tested. The letter codes for the PARP trapping assay, and parylation assay include: A (<10 nM), B (>10-100 nM), C (>100-1000 nM), […], E (>10000 nM), and “-” is not tested.

HCC1806 cells = experiment: Cell proliferation assay (HCC1806); conditions: Homo sapiens, 168 h, 7 days
Protocol: (§2) Cells are counted, diluted to desired density and 40 μL of cell suspension is added into each 384-well tissue-culture treated plates. Plates are incubated in Tissue Culture incubator at 37° C./5% C02 overnight.
(§3) Next day, 40 nl test compounds that are prepared from source plates are transferred to the seeded cells from overnight. Plates are incubated at 37° C./5% C02 for a total of 7 days. After 7-day incubation, plates are equilibrated to room temperature and 30 ul of Cell Counting-Lite is added to each well for a 30 min incubation followed by reading on EnVision.
(§4) The letter codes for the cell proliferation assay in A2780, HCC1806, and MDA-MB-436 cells include: A (<10 nM), B (>10-100 nM), C (>100-1000 nM), D (>1000-10000 nM), E (>10000 nM), and “-” is not tested.

MDA-MB-436 cells = experiment: Cell proliferation assay (MDA-MB-436); conditions: Homo sapiens, 168 h, 7 days
Protocol: as §2, §3, §4

PARP1 = PARP1 (Homo sapiens, UniProt P09874); experiment: PARP trapping assay in U2OS cells; set-up: endogenous in cells; host or cells: U2OS; conditions: U2OS cells, MMS, 4 hrs; read-out: PARP Trapping (U2OS)
Protocol: U2OS cells are seeded at 15,000 cells/well in 90 ul medium and incubated in the TC incubator for overnight.
Next day, test compounds are prepared in a source plate along with addition of DNA damage reagent MMS simultaneously and 10 ul of the diluted mixture is added to the cell plate and incubated for 4 hrs under T/C conditions.
After 4 hrs, following aspiration and washing, add 100 ul of cold cytoskeleton removal buffer (0.5% Triton X-100) and incubated for 10 min. At the end of incubation, slowly the buffer is removed, and cells are fixed with ice cold MeOH for 15 min at −20C. Followed by wash steps, cells are blocked with 1×PBS/3% BSA/0.05% Tween for 1 h at room temperature.
Cells are stained with anti PARP1 antibody (abeam ab227244, 1:1000), in 1×PBS/1% BSA overnight at 4C.
Wash and add DAPI, scan cells in Celigo.
Data Analysis: DAPI staining is used to segment nuclei and AF488 fluorescence intensity per nucleus is measured.
as §1

A2780 cells = experiment: Cell proliferation assay (A2780); conditions: Homo sapiens, 168 h, 7 days
Protocol: as §2, §3, §4

Sequence of PARP1 (P09874 whole entry): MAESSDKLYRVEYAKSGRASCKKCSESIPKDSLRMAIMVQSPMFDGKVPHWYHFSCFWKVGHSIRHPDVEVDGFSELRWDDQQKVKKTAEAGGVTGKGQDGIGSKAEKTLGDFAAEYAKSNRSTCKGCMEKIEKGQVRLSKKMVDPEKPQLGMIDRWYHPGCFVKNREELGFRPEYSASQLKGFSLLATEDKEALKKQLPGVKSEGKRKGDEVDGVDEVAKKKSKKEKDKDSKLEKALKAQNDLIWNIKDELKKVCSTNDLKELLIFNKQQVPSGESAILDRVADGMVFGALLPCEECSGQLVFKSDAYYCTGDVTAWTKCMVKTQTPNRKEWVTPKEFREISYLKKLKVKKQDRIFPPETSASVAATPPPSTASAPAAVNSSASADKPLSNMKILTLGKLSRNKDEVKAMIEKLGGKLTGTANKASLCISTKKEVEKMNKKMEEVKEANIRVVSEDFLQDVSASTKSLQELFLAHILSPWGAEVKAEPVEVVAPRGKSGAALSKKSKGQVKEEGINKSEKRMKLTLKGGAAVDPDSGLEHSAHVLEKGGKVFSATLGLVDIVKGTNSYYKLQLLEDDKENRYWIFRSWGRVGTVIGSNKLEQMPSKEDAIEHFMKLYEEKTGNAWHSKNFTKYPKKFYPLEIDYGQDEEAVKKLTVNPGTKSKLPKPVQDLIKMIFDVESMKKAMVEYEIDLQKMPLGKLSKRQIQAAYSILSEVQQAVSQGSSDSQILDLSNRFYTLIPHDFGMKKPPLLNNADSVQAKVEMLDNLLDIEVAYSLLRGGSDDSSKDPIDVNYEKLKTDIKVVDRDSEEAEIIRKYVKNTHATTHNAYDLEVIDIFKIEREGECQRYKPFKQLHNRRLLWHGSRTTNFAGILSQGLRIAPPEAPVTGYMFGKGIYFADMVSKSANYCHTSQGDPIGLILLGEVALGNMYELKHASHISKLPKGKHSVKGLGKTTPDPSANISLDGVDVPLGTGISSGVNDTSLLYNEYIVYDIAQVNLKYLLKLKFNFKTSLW

Compound | IC50 [1] [µM] | IC50 (HCC1806 cells) [µM] | IC50 (MDA-MB-436 cells) [µM] | IC50 (PARP1) [µM] | IC50 (A2780 cells) [µM]
O=C(N[C@@H](C(=O)N1CCC(CC(=O)N2CCN(C(=O)c3cc(Cc4n[nH]c(=O)c5ccccc45)ccc3F)CC2)CC1)C1CCCCC1)c1cccc(C2CCCN(C(=O)C3CC3)C2)c1F (stereo partly shown) [Compound I-715] | 0.01 to 0.1 | 0.01 to 0.1 | < 0.01 | 0.01 to 0.1 | –
O=C(N[C@@H](C(=O)N1CCN(CC(=O)N2CCN(C(=O)c3cc(Cc4n[nH]c(=O)c5ccccc45)ccc3F)CC2)CC1)C1CCCCC1)c1cccc(C2CCCN(C(=O)C3CC3)C2)c1F (stereo partly shown) [Compound I-454] | 0.01 to 0.1 | – | 0.1 to 1 | 0.1 to 1 | 0.01 to 0.1
O=C(N[C@@H](C(=O)N1CCN(CC23CCC(C(=O)N4CCN(C(=O)c5cc(Cc6n[nH]c(=O)c7ccccc67)ccc5F)CC4)(CC2)CO3)CC1)C1CCCCC1)c1cccc([C@@H]2CCCN(C(=O)CNC3CC3)C2)c1 [Compound I-382] | 0.01 to 0.1 | – | < 0.01 | 0.01 to 0.1 | 0.01 to 0.1
O=C(N[C@@H](C(=O)N1CCN(CC(=O)N2CCN(C(=O)c3cc(Cc4n[nH]c(=O)c5ccccc45)ccc3F)CC2)CC1)C1CCCCC1)c1cc(C2CCCN(C(=O)C3CC3)C2)ccc1F (stereo partly shown) [Compound I-453] | 0.1 to 1 | – | 0.01 to 0.1 | 0.1 to 1 | 0.01 to 0.1
CCc1cccc(-c2cnc(C(=O)N3CCC(CC(=O)N4CCN(C(=O)c5cc(Cc6n[nH]c(=O)c7ccccc67)ccc5F)CC4)CC3)c(NC(=O)CNCc3cccc(C)c3)c2)c1 [Compound I-412] | 0.1 to 1 | – | < 0.01 | 0.01 to 0.1 | 0.01 to 0.1

Next, values leading:

IC50 [1] [µM] | IC50 (HCC1806 cells) [µM] | IC50 (MDA-MB-436 cells) [µM] | IC50 (PARP1) [µM] | IC50 (A2780 cells) [µM] | Compound
0.01 to 0.1 | – | 0.1 to 1 | 0.01 to 0.1 | 0.1 to 1 | CCOc1cc(OC)ccc1CNCC(=O)N1CCCC(c2ccc(F)c(C(=O)N[C@@H](C(=O)N3CCN(CC4CCN(CC(=O)N5CCN(C(=O)c6cc(Cc7n[nH]c(=O)c8ccccc78)ccc6F)CC5)CC4)CC3)C3CCCCC3)c2)C1 (stereo partly shown) [Compound I-308]
0.01 to 0.1 | 0.01 to 0.1 | < 0.01 | 0.01 to 0.1 | – | CC1(C)CC(c2ccc(C(=O)N[C@@H](C(=O)N3CCC(OC4CCN(CC(=O)N5CCN(C(=O)c6cc(Cc7n[nH]c(=O)c8ccccc78)ccc6F)CC5)CC4)CC3)C3CCCCC3)c(F)c2)CCN1C(=O)C1CC1 (stereo partly shown) [Compound I-743]
< 0.01 | 0.01 to 0.1 | < 0.01 | 0.01 to 0.1 | – | O=C(CN1CCC(OC2CCN(C(=O)c3ncc(-c4ccccc4)cc3F)CC2)CC1)N1CCN(C(=O)c2cc(Cc3n[nH]c(=O)c4ccccc34)ccc2F)CC1 [Compound I-709]
0.1 to 1 | – | < 0.01 | 0.1 to 1 | 0.1 to 1 | CCc1cccc(-c2cc(N)c(C(=O)N3CCC(CN4CCN(CC(=O)N5CCN(C(=O)c6cc(Cc7n[nH]c(=O)c8ccccc78)ccc6F)CC5)CC4)CC3)c(F)c2)c1 [Compound I-409]
0.01 to 0.1 | – | 0.01 to 0.1 | 0.1 to 1 | 0.1 to 1 | CCc1cccc(-c2cnc(C(=O)N3CCC(CN4CCN(CC(=O)N5CCN(C(=O)c6cc(Cc7n[nH]c(=O)c8ccccc78)ccc6F)CC5)CC4)CC3)c(NC(=O)CN3CCOCC3)c2)c1 [Compound I-333]
0.01 to 0.1 | – | < 0.01 | 0.01 to 0.1 | 0.01 to 0.1 | O=C(N[C@@H](C(=O)N1CCN(CC23CCC(C(=O)N4CCN(C(=O)c5cc(Cc6n[nH]c(=O)c7ccccc67)ccc5F)CC4)(CC2)CO3)CC1)C1CCCCC1)c1cccc(C2CCCN(C(=O)CNC3CC3)C2)c1 (stereo partly shown) [Compound I-380]
0.01 to 0.1 | – | < 0.01 | 0.1 to 1 | 0.01 to 0.1 | CCc1cccc(-c2cnc(C(=O)N3CCC(CN4CCN(CC(=O)N5CCN(C(=O)c6cc(Cc7n[nH]c(=O)c8ccccc78)ccc6F)CC5)CC4)CC3)c(C#N)c2)c1 [Compound I-419]
0.1 to 1 | – | 0.01 to 0.1 | < 0.01 | 0.01 to 0.1 | O=C(N[C@@H](C(=O)N1CCN(CC23CCC(C(=O)N4CCN(C(=O)c5cc(Cc6n[nH]c(=O)c7ccccc67)ccc5F)CC4)(CC2)CO3)CC1)C1CCCCC1)c1cccc([C@H]2CCCN(C(=O)CNC3CC3)C2)c1 (racemic) [Compound I-381]
